We go through one compound from ChEMBL document CHEMBL4152208, “Synthesis and structure-activity relationships of quinolinone and quinoline-based P2X7 receptor antagonists and their anti-sphere formation activities in glioblastoma cells” (Eur J Med Chem, 2018).

A short description of data set [1]: Inhibition of neurosphere formation in human TS15-88 cells assessed as decrease in sphere size at 50 uM after 5 days by microscopic analysis relative to control. The settings on record: 120 h. The class given is functional.
The species named for data set [2] is Homo sapiens. In words: Antiproliferative activity against human TS15-88 cells at 50 uM after 72 hrs by MTS assay. Format: functional, cell-based.
For data set [3], the species on record is Homo sapiens. In words: Effect on SOX2 mRNA expression in human TS15-88 cells after 72 hrs by qRT-PCR analysis. Format: functional, cell-based.
Data set [4] addresses T1, P2X purinoceptor 2 (Homo sapiens) (UniProt Q9UBL9).
T1 sequence (whole entry): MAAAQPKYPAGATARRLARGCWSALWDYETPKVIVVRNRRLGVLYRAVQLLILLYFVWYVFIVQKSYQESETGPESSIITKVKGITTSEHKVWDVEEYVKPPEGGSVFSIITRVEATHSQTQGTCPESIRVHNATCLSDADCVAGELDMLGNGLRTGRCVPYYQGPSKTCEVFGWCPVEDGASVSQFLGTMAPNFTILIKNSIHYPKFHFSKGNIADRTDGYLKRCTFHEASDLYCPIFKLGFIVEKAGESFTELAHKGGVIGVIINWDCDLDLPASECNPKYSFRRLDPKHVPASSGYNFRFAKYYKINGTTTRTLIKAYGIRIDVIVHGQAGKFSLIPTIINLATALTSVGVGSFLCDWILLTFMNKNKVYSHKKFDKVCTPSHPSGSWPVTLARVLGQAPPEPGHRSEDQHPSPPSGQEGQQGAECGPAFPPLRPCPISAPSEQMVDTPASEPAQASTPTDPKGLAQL
In words: Antagonist activity at human P2X2 receptor expressed in 1321N1 cells assessed as inhibition of ATP-induced calcium flux at 1 uM measured for 30 secs at 0.4 secs intervals by Flou-4-AM dye based fluorescence assay relative to control. The class given is cell-based. (In general: A change in cytosolic calcium serves as a functional read-out for many receptors and channels.)

Data set [5] addresses T2, P2X purinoceptor 7 (Homo sapiens) (UniProt Q99572).
T2 sequence (whole entry): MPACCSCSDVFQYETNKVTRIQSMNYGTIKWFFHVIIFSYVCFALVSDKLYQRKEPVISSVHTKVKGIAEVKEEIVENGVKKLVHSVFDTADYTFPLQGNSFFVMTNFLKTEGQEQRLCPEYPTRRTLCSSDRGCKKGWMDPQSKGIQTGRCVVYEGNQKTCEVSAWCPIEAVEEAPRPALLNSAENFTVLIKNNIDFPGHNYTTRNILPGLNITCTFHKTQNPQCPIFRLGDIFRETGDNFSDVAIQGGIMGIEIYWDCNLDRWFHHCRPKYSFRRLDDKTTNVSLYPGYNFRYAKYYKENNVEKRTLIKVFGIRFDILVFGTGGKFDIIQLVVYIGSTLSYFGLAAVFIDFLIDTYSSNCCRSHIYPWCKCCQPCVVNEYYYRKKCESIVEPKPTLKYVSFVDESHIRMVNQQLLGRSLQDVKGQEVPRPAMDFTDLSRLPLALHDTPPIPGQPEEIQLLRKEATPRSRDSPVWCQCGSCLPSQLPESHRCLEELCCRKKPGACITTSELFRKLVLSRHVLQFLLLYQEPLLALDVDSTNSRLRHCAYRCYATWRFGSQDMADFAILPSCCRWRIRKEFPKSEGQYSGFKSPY
In words: Antagonist activity at human P2X7 receptor expressed in HEK293 cells assessed as inhibition of BzATP-induced EtBr uptake at 10 uM after 2 hrs by fluorescence assay relative to control. The class given is cell-based.

A short description of data set [6]: Equilibrium solubility of the compound in DMSO after 16 hrs. Format: physicochemical.
Data set [7] deals with T3, P2X purinoceptor 7 (Homo sapiens, UniProt Q99572).
T3 sequence (Q99572 whole entry): T2 sequence (whole entry)
In words: Antagonist activity at human P2X7 receptor expressed in HEK293 cells assessed as inhibition of BzATP-induced EtBr uptake after 2 hrs by fluorescence assay relative to control. The class given is cell-based.

Data set [8] deals with T4, P2X purinoceptor 3 (Homo sapiens, UniProt P56373).
T4 sequence (P56373 whole entry): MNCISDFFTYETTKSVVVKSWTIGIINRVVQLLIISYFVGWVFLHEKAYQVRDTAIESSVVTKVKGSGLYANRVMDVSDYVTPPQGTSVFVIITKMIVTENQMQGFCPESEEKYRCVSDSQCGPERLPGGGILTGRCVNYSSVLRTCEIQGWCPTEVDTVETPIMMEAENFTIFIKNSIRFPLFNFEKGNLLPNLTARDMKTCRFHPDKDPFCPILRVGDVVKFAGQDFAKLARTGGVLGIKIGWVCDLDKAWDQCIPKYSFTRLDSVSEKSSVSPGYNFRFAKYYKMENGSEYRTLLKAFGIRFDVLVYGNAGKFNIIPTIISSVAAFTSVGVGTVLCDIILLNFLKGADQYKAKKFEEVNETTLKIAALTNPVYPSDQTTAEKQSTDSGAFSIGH
In words: Antagonist activity at human P2X3 receptor expressed in 1321N1 cells assessed as inhibition of ATP-induced calcium flux measured for 30 secs at 0.4 secs intervals by Flou-4-AM dye based fluorescence assay. Format: cell-based.

The species entered for data set [9] is Homo sapiens. In words: Antiproliferative activity against human TS15-88 cells at 50 uM after 24 hrs by MTS assay. Format: functional, cell-based. Background: Formazan colour is commonly taken as a measure of viable cells.
Data set [10] deals with T5, P2X purinoceptor 1 (Homo sapiens) (UniProt P51575).
T5 sequence (whole entry): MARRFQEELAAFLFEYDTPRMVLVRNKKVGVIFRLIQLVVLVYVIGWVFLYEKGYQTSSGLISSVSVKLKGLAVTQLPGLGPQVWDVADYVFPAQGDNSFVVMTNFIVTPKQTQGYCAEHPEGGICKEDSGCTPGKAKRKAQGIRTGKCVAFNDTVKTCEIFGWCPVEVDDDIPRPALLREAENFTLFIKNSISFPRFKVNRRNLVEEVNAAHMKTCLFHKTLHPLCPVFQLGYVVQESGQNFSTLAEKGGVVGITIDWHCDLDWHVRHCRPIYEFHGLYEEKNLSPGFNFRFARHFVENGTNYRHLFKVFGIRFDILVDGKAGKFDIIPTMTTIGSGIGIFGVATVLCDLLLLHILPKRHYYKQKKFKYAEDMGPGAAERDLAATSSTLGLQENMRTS
In words: Antagonist activity at human P2X1 receptor expressed in 1321N1 cells assessed as inhibition of ATP-induced calcium flux at 1 uM measured for 30 secs at 0.4 secs intervals by Flou-4-AM dye based fluorescence assay relative to control. The class given is cell-based.

A short description of data set [11]: Drug level in zebrafish brain at 10 mg/kg, po administered via gavage measured 0.5 hrs post compound administration by LC-MS/MS analysis. Format: ADME, organism-based, Danio rerio. As to conditions: read-out: Drug uptake.
For data set [12], the target named is T2, P2X purinoceptor 7 (Homo sapiens). In words: Antagonist activity at human P2X7 receptor expressed in HEK293 cells assessed as inhibition of BzATP-induced EtBr uptake at 1 uM after 2 hrs by fluorescence assay relative to control. Format: cell-based.
The nature of data set [13]: Reduction of […] mRNA expression in human TS15-88 cells after 72 hrs by qRT-PCR analysis relative to control. The class given is functional. Details: scale not given: the % may be the effect or the level left. For orientation: Real-time PCR tracks product formation cycle by cycle.
Data set [14] in a line: Metabolic stability in mouse liver microsomes assessed as parent compound remaining at 1 uM up to 30 mins in presence of NADPH by LC-MS/MS analysis. The class given is ADME, microsome. The settings on record: read-out: Stability.
Data set [15] is described as follows: Cytotoxicity against HEK293 cells expressing human P2X7 receptor assessed as cell survival at 10 uM by MTT assay relative to control. The class given is cell-based. As to conditions: read-out: Survival.
A short description of data set [16]: Increase in MYC mRNA expression in human TS15-88 cells after 72 hrs by qRT-PCR analysis relative to control. The class given is functional.

pIC50: −log10 of the molar value. Values after ≈ are worked out from the molar mass of the structure shown. Active and inactive are the calls of the source. The rule behind the calls is not given here.

As to `O=C(CC12CC3CC(CC(C3)C1)C2)Nc1cccc2nc(Cl)ccc12`, in data set [1], the inhibition – broadly, the share of the control response that was lost under treatment – at 50 µM was above 50%. Moreover, the outcome in data set [2] and in [9] was Active. The outcome in data set [3] was inactive. Moreover, the inhibition in data set [4] is 7%; in data set [5], 97%; in data set [10], 13%; in data set [12], 89%. For the same compound, the solubility (commonly the dissolved amount per volume that the medium holds) at 16 h in data set [6] amounted to 15.6 µM (≈ 5.54 µg/mL). Further, the pIC50 (usually −log10 of the IC50, conventionally taken in molar units) in data set [7] was 8.40. For the same compound, the IC50 result in data set [8] is given as “Not Active”. Also, the concentration at 0.5 h in data set [11] worked out at 425 ng/g. Also, the Activity in data set [13] and in data set [16] was 41% each time. For the same compound, the remaining at 0.5 h, 1 µM in data set [14] came out at 0.1%. Moreover, in data set [15], the viability at 10 µM is 98%.
